Here are results for 53 compounds from patent publication US20250214977A1, “STAT6 INHIBITORS AND USES THEREOF” (Kymera Therapeutics, Inc., priority 2024, published 2025).

This assay relates to Phosphorylation of STAT6 in human A549 cells. Briefly: Phosphorylated STAT6 (pSTAT6) flow cytometry assay in human A549 cells. Conditions: read-out: STAT6 IL4 pSTAT6 assay in A549 cells: Average IC50. In kind it is cell-based. The source says:
Example 3. Phosphorylated STAT6 (pSTAT6) Flow Cytometry Assay in Human A549 Cells
Phosphorylation of STAT6 in human A549 cells was quantitatively measured using flow cytometry technology.
A general note: In flow cytometry, cells or beads pass a laser one at a time.

Consider `CCc1ccncc1-c1cc(C2=CCCN(C(=O)CCn3ccnn3)C2)c(F)c2[nH]c(C(=O)N3CCN(c4ncccc4OC)CC3)cc12` [Example I-561], for which the 50% inhibitory concentration (IC50) is less than 100 nM.
The same measure for `COc1cnccc1-c1cc(C(=O)N2CCN(c3ncc(F)cc3OC)CC2)cc2cc(C3=CCCN(C(=O)CCn4ccnn4)C3)n(CC3CC3)c12` [Example I-729]: less than 100 nM; for `COc1ccncc1-c1cc(C2=CCCN(C(=O)CCn3ccnn3)C2)c(F)c2[nH]c(C(=O)N3CCN(c4ncccc4OC4CC4)CC3)cc12` [Example I-456]: less than 100 nM.
The same measure for `CCc1ccncc1-c1cc(C2=CCCN(C(=O)CCn3ccnn3)C2)c(F)c2[nH]c(C(=O)N3CCN(C4CC4)CC3)cc12` [Example I-473]: less than 100 nM; for `COc1cccnc1N1CCN(C(=O)c2cc3c(-c4cnccc4OC4CC4)cc(C4=CCCN(C(=O)CCn5ccnn5)C4)c(F)c3[nH]2)CC1` [Example I-556]: less than 100 nM; for `COc1cc(F)cnc1N1CCN(C(=O)c2cc3c(-c4ccc(C(C)(C)C#N)cc4)cc(C4=CCCN(C(=O)CCn5ccnn5)C4)c(F)c3[nH]2)CC1` [Example I-1142]: less than 100 nM.
The same measure for `COc1ccccc1-c1cc(C2=CCCN(C(=O)CCn3ccnn3)C2)c(F)c2[nH]c(C(=O)N3CCN(c4ncccc4C(C)C)CC3)cc12` [Example I-333]: less than 100 nM; for `CCc1cc(C)ncc1-c1cc(C2=CCCN(C(=O)CCc3nccs3)C2)c(F)c2[nH]c(C(=O)N3Cc4cnn(CC)c4C3)cc12` [Example I-538]: less than 100 nM.
In the case of `COc1ccccc1-c1cc(C2=CCCN(C(=O)CCn3ccnn3)C2)c(F)c2[nH]c(C(=O)N3CCc4cnn(C)c4C3)cc12` [Example I-516], the IC50 was less than 100 nM.
The same measure for `COc1ccccc1-c1cc(C2=CCCN(C(=O)CCn3ccnn3)C2)c(F)c2[nH]c(C(=O)N3CCC(=O)N(C)CC3)cc12` [Example I-994]: less than 100 nM; for `COc1cc(F)cnc1N1CCN(C(=O)c2cc3c(-c4cccc(-n5nc(C)cc5C)c4)cc(C4=CCCN(C(=O)CCn5ccnn5)C4)c(F)c3[nH]2)CC1` [Example I-620]: less than 100 nM; for `COc1ccc(-c2cc(C3=CCCN(C(=O)CCn4ccnn4)C3)c(F)c3[nH]c(C(=O)N4CCN(c5ncc(F)cc5OC)CC4)cc23)c(C2CC2)c1` [Example I-641]: less than 100 nM.
Next, `COc1cc(C#N)ccc1-c1cc(C2=CCCN(C(=O)CCn3ccnn3)C2)c(F)c2[nH]c(C(=O)N3CCN(c4ncccc4OC)CC3)cc12` [Example I-576]: less than 100 nM; `CCc1ccc(-c2cc(C(=O)N3CCN(c4ncc(F)cc4OC)CC3)cc3cc(C4=CCCN(C(=O)C5CC5C(=O)O)C4)n(CC4CC4)c23)c(C)n1` (centres unmarked) [Example I-545]: less than 100 nM.
Take `CN(C)C(=O)c1cc2cc(C3=CCCN(C(=O)CCn4ccnn4)C3)cc(-c3ccc4cnn(C)c4c3)c2o1` [Example I-1072]: the IC50 was less than 100 nM.
The same measure for `COc1ccccc1-c1cc(C2=CCCN(C(=O)CCn3ccnn3)C2)c(F)c2[nH]c(C(=O)N3CCC(Nc4ncccn4)CC3)cc12` [Example I-849]: less than 100 nM; for `COc1ccccc1-c1cc(C2=CCCN(C(=O)CCn3ccnn3)C2)c(F)c2[nH]c(C(=O)N(C)C3Cc4ccccc4C3)cc12` [Example I-978]: 100 to 1000 nM; for `COc1cnccc1-c1cc(C2=CCCN(C(=O)CCn3ccnn3)C2)c(F)c2[nH]c(C(=O)N3CCN(C4CC4)CC3)cc12` [Example I-605]: less than 100 nM.
The same measure for `CCn1nccc1-c1cc(C(=O)N2Cc3cnn(CC)c3C2)cc2cc(C3=CCCN(C(C)=O)C3)n(CC3CC3)c12` [Example I-1045]: 100 to 1000 nM; for `COc1cc(F)cnc1N1CCN(C(=O)c2cc3c(-c4cnn(-c5ccccc5)c4C)cc(C4=CCCN(C(=O)CCn5ccnn5)C4)c(F)c3[nH]2)CC1` [Example I-625]: less than 100 nM.
Next, `COc1ccccc1-c1cc(C2=CCCN(C(=O)[C@H]3Cc4ccccc4CN3C=O)C2)cc2cc(C(=O)N(C)C)oc12` [Example I-839]: less than 100 nM; `COc1ccccc1-c1cc(C2=CCCN(C(=O)CCn3ccnn3)C2)c(F)c2[nH]c(C(=O)N3CCN(c4nccc5ccncc45)CC3)cc12` [Example I-355]: less than 100 nM.
For the compound `CCC1=C(c2cc(C3=CCCN(C(=O)CCn4ccnn4)C3)c(F)c3[nH]c(C(=O)N4CCN(c5ncc(F)cc5OC)CC4)cc23)CN(C)C1` [Example I-782], the IC50 is less than 100 nM.
In the case of `COc1ccccc1-c1cc(C2=CCCN(C(=O)CCn3ccnn3)C2)c(F)c2[nH]c(C(=O)N3CCN(Cc4noc(C)n4)CC3)cc12` [Example I-1201], the IC50 is less than 100 nM.
The same measure for `CCC1CCCC=C1c1cc(C2=CCCN(C(=O)CCn3ccnn3)C2)c(F)c2[nH]c(C(=O)N3CCN(c4ncccc4OC)CC3)cc12` (centres unmarked) [Example I-1168]: 100 to 1000 nM.
As for `COc1ccncc1-c1cc(C2=CCCN(C(=O)CCn3ccnn3)C2)c(F)c2[nH]c(C(=O)N3CCN(c4nc(Cl)ccc4OC)CC3)cc12` [Example I-491], the IC50 was greater than 100000 nM.
For the compound `CN(C)C(=O)c1cc2cc([C@H]3CCCN(C(=O)CCn4ccnn4)C3)ccc2o1` [Example I-830], the IC50 fell in the range of 100 to 1000 nM.
Next, `COC(=O)CC(=O)N1CCC=C(c2cc3cc(C(=O)N4Cc5cnn(C)c5C4)cc(-c4cccnc4OC)c3n2CC2CC2)C1` [Example I-795]: greater than 100000 nM; `COc1ccccc1-c1cc(C2=CCCN(C(=O)CCn3ccnn3)C2)c(F)c2[nH]c(C(=O)N3Cc4cccc(F)c4C3)cc12` [Example I-982]: greater than 100000 nM.
Next, `COc1cccnc1C1=CCN(C(=O)c2cc3c(-c4cnc5ccccc5c4OC)cc(C4=CCCN(C(=O)CCn5ccnn5)C4)c(F)c3[nH]2)CC1` [Example I-451]: less than 100 nM; `COc1cc(F)cnc1N1CCN(C(=O)c2cc3c(-c4ccncc4C(C)C)cc(C4=CCCN(C(=O)CCn5cccn5)C4)c(F)c3[nH]2)CC1` [Example I-685]: less than 100 nM; `CCc1cc(C)ncc1-c1cc(C2=CCCN(C(=O)CCn3cccn3)C2)c(F)c2[nH]c(C(=O)N3Cc4cnn(CC)c4C3)cc12` [Example I-537]: less than 100 nM.
The same measure for `CCC1=C(c2cc(C3=CCCN(C(=O)CCn4ccnn4)C3)c(F)c3[nH]c(C(=O)N4CCN(c5ncc(F)cc5OC)CC4)cc23)CCNC1` [Example I-731]: less than 100 nM; for `CCc1ncccc1-c1cc(C(=O)N2CCN(c3ncc(F)cc3OC)CC2)cc2cc(C3=CCCN(C(=O)C(=O)O)C3)n(CC3CC3)c12` [Example I-797]: greater than 100000 nM.
As to `COc1cccnc1N1CCN(C(=O)c2cc3c(-c4cccc5ccccc45)cc(C4=CCCN(C(=O)CCn5ccnn5)C4)c(F)c3[nH]2)CC1` [Example I-397], the 50% inhibitory concentration (IC50) is greater than 100000 nM.
The same measure for `COc1ccccc1-c1cc(C2=CCCN(C(=O)CCn3ccnn3)C2)c(F)c2[nH]c(C(=O)N3CCN(c4cn5ccnc5cc4C)CC3)cc12` [Example I-915]: less than 100 nM; for `COc1cnccc1-c1cc(C2=CCCN(C(=O)CCn3ccnn3)C2)c(F)c2[nH]c(C(=O)N3Cc4cnn(C)c4C3)cc12` [Example I-502]: 10000 to 100000 nM; for `CN(C)C(=O)c1cc2cc(C3=CCCN(C(=O)CCn4ccnn4)C3)cc(NCc3ccc(C(F)(F)F)cc3)c2o1` [Example I-877]: 100 to 1000 nM.
Next, `CCCc1cc(C2=CCCN(C(=O)CCn3ccnn3)C2)c(F)c2[nH]c(C(=O)N3CCN(c4ncc(F)cc4OC)CC3)cc12` [Example I-693]: greater than 100000 nM; `CCc1cc(C)ncc1-c1cc(C2=CCCN(C(=O)CCn3ccnn3)C2)c(F)c2[nH]c(C(=O)N3Cc4cnn(CC)c4C3)cc12` [Example I-529]: less than 100 nM.
With `COCOc1ccc(F)cc1-c1cc(C2=CCCN(C(=O)CCn3ccnn3)C2)c(F)c2[nH]c(C(=O)N3CCN(c4ncc(F)cc4OC)CC3)cc12` [Example I-660], the IC50 was less than 100 nM.
Next, `COc1cnccc1-c1cc(C2=CCCN(C(=O)CCn3ccnn3)C2)c(F)c2[nH]c(C(=O)N3CCN(c4ncccc4OC4CC4)CC3)cc12` [Example I-593]: less than 100 nM; `COc1ccccc1-c1cc(C2=CCCN(C(=O)CCn3ccnn3)C2)c(F)c2[nH]c(C(=O)N3CCN(c4nnn(C)c4C)CC3)cc12` [Example I-778]: less than 100 nM.
Next, `COc1cccc(N2CCN(C(=O)c3cc4c(-c5cccnc5OC)cc(C5=CCCN(C(=O)CCn6ccnn6)C5)c(F)c4[nH]3)CC2)n1` [Example I-606]: less than 100 nM.
As to `COc1ccccc1-c1cc(C2=CCCN(C(=O)CCn3ccnn3)C2)c(F)c2[nH]c(C(=O)N3CCN(c4nc5ccccc5nc4C)CC3)cc12` [Example I-339], the half-inhibitory concentration (IC50) was less than 100 nM.
The same measure for `COc1cc(F)cnc1N1CCN(C(=O)c2cc3c(-c4ccccc4CN4CCOCC4)cc(C4=CCCN(C(=O)CCn5ccnn5)C4)c(F)c3[nH]2)CC1` [Example I-1123]: less than 100 nM.
Next, `CC(=O)N1CCC=C(c2cc(-c3cc(C#N)ccc3C)c3cc(C(=O)N(C)C)[nH]c3c2F)C1` [Example I-884]: 100 to 1000 nM.
The same measure for `COc1ccccc1-c1cc(C2=CCCN(C(=O)CCn3ccnn3)C2)c(F)c2[nH]c(C(=O)N3CCN(c4cn(C)c(=O)c5ccccc45)CC3)cc12` [Example I-905]: less than 100 nM; for `COc1cc(F)cnc1N1CCN(C(=O)c2cc3c(C4=CC(=O)CC4)cc(C4=CCCN(C(=O)CCn5ccnn5)C4)c(F)c3[nH]2)CC1` [Example I-1116]: less than 100 nM; for `COc1ccccc1-c1cc(C2=CCCN(C(C)=O)C2)c(F)c2[nH]c(C(=O)N3CCN(c4ncccc4OC)CC3)cc12` [Example I-553]: 100 to 1000 nM.
Consider `COc1cc(F)cnc1N1CCN(C(=O)c2cc3c(-c4ccc(C5(O)CCC5)cc4)cc(C4=CCCN(C(=O)CCn5ccnn5)C4)c(F)c3[nH]2)CC1` [Example I-1146], for which the concentration for half-maximal inhibition (IC50) was less than 100 nM.
Next, `CCn1nccc1-c1cc(C2=CCCN(C(=O)CCn3ccnn3)C2)c(F)c2[nH]c(C(=O)N3CCN(c4ncccc4OC)CC3)cc12` [Example I-582]: less than 100 nM; `COc1ccccc1-c1cc(C2=CCCN(C(=O)CCn3ccnn3)C2)c(F)c2[nH]c(C(=O)N3CCN(c4cc(F)cc(F)c4OC)CC3)cc12` [Example I-357]: less than 100 nM.

Usually IC50 stands for the concentration at which inhibition is half-maximal.
